Results as given in PubChem BioAssay (NCI).
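Each compound was tested at five concentrations against cells in 96-well plates for 48 hours. TGI denotes the concentration required for complete inhibition of growth.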 Where a SMILES comes first, the peptide text is derived from it. The star is where a group is joined. Boc = CC(C)(C)OC(=O)*

Key:
Test in all cases: inhibition of tumour cell growth, NCI panel, 48 h
BT-549 breast = tested on: BT-549 breast
SK-MEL-2 melanoma = tested on: SK-MEL-2 melanoma
SNB-75 CNS = tested on: SNB-75 CNS
UACC-62 melanoma = tested on: UACC-62 melanoma
SK-MEL-28 melanoma = tested on: SK-MEL-28 melanoma
OVCAR-8 ovarian = tested on: OVCAR-8 ovarian
LOX IMVI melanoma = tested on: LOX IMVI melanoma
SW-620 colon = tested on: SW-620 colon
T-47D breast = tested on: T-47D breast
786-0 renal = tested on: 786-0 renal
HS 578T breast = tested on: HS 578T breast
IGROV1 ovarian = tested on: IGROV1 ovarian
MDA-MB-231 breast = tested on: MDA-MB-231 breast
HOP-92 NSCLC = tested on: HOP-92 NSCLC
SN12C renal = tested on: SN12C renal
PC-3 prostate = tested on: PC-3 prostate
EKVX NSCLC = tested on: EKVX NSCLC
HCT-15 colon = tested on: HCT-15 colon
SK-OV-3 ovarian = tested on: SK-OV-3 ovarian
SR leukemia = tested on: SR leukemia

SMILES	TGI (BT-549 breast) [µM]	TGI (SK-MEL-2 melanoma) [µM]	TGI (SNB-75 CNS) [µM]	TGI (UACC-62 melanoma) [µM]	TGI (SK-MEL-28 melanoma) [µM]	TGI (OVCAR-8 ovarian) [µM]	TGI (LOX IMVI melanoma) [µM]	TGI (SW-620 colon) [µM]	TGI (T-47D breast) [µM]	TGI (786-0 renal) [µM]	TGI (HS 578T breast) [µM]	TGI (IGROV1 ovarian) [µM]	TGI (MDA-MB-231 breast) [µM]	TGI (HOP-92 NSCLC) [µM]	TGI (SN12C renal) [µM]	TGI (PC-3 prostate) [µM]	TGI (EKVX NSCLC) [µM]	TGI (HCT-15 colon) [µM]	TGI (SK-OV-3 ovarian) [µM]	TGI (SR leukemia) [µM]
CCN(CC)C(=S)/N=C(\SC(=S)N(CC)CC)c1ccccc1	> 100	> 100	> 100	> 100	> 100	> 100	36.1	> 100	> 100	> 100	> 100	> 100	> 25.7	> 100	> 100	> 100	> 100	> 100	> 100	
CN1CN(c2ccccc2)C2(CCN(C3Nc4ccccc4O3)CC2)C1=O (centres undefined)	37.3	28.3	62.3	31	47.2	82.1	26.8	> 100	58.8	49.6	37.7	58.5	44.6		34.7	45.2		28.8	48.1	> 100
C/C(=N\Nc1nc2ccccc2o1)c1ncccn1	34.8	13.6		0.449	28.6	0.404	0.199	28.3	28.5	12.1	> 61	1.16	21.5	16.6	15.2	19.9	14.1	20.3	10	0.228
COc1ccc(-c2[nH]c(-c3ccc(OC)cc3)c(-c3ccccn3)c2-c2ccccn2)cc1	99.9		> 100	> 100		> 100	65.5	> 100	> 100	> 100	> 100	> 100	> 100	> 100	> 100	> 100	> 100	> 100	> 100	> 100
Cc1ccc(N=NN(C)C(C)C(O)Cc2ccccc2)cc1 (centres undefined)	> 100	> 100	> 100	> 100	> 100	> 100		> 100	88.5	> 100	> 100	> 100	> 100		> 100	> 100	> 100	> 100	> 100	
COc1ccc(C[n+]2cccc(O)c2)cc1	> 100	> 100		> 100	> 100	> 100		> 100	> 100	> 100	> 100	> 100	> 100	> 100	> 100	> 100	> 100		> 100	> 100
CC1=NNC(=O)C1C1CC(c2c[nH]c3ccccc23)=NN(c2ccccc2)C1=O (centres undefined)	> 100	> 100	> 100	> 100	> 100	> 100	> 100	> 100	> 100	57.7	> 100	> 100	> 100	> 100	> 100	> 100	> 100	> 100	> 100	
N#CC(c1ccccc1)N(CCc1ccccc1)C(=O)c1ccc(C(=O)N(CCc2ccccc2)C(C#N)c2ccccc2)cc1 (centres undefined)	44.3	48.1	45.8	35.6	51.3	34.6	37	58.7	61.3	56.5	39.1	57	76.1	28.1	38.3	> 100	> 100	37.8	> 100	
CC(NC(=O)C1CCCN1C(=O)CNC(=O)OC(C)(C)C)C(=O)O (stereo not drawn) (Boc-Gly-Pro-Ala-OH; configuration not given here)	> 100	> 100	> 100	> 100	> 100	> 100		> 100	> 100	> 100	> 100	> 100	> 100	> 100	> 100	> 100	> 100	> 100	> 100	> 100
O=C(NC(=O)c1ccccc1)OC(c1ccccc1)C1CO1 (centres undefined)	> 100	> 100	> 100	> 100	> 100	> 100	> 100	> 100	> 100	> 100	> 100	> 100	> 100		> 100	> 100	> 100	> 100	> 100	
COC(O)C(=O)c1c2c(cc3c1CCC3)CCC2 (centres undefined)	> 100	> 100	> 100	> 100	> 100	> 100	> 100	> 100	> 100	> 100	> 100	> 100	> 100		> 100	> 100	> 100	> 100	> 100	> 100
C=C1C2C[C@@H]3O[C@H]4C[C@H]5O[C@@]6(C[C@@H]7O[C@]8(C[C@H](C)[C@@H]9O[C@@H]%10CC(C=O)O[C@@H]%10C[C@@H]9O8)C[C@H](C)[C@@H]7O6)C[C@H]5O[C@H]4[C@H](C)[C@H]3OC(=O)C[C@H]3CC[C@@H]4OC5[C@H]6O[C@]7(CC[C@H]8CC(=C)[C@H](CC[C@@H](C[C@H]1C)O2)O8)CC6O[C@@H]5[C@@H](O7)[C@H]4O3 (some centres undefined)	< 0.0001		> 1	> 1				> 1	> 1	0.971	< 0.0001	> 1	> 0.218	> 0.42	> 1	> 1	> 1	0.00609	> 1	> 1
O=C(NC1CCN(Cc2ccccc2)CC1)c1cccc(I)c1	> 100	38.5		40.1	37.4	> 100	37.8	30.9	61	57.8	83	> 100	32.1	62.7	> 100	> 100	> 100	35.6	42.8	80.3
Cc1c2oc3c(C)cnc(C(=O)NC4C(=O)NC(C(C)C)C(=O)N5CCCC5C(=O)N(C)CC(=O)N(C)C(C(C)C)C(=O)OC4C)c3nc-2c(C(=O)NC2C(=O)NC(C(C)C)C(=O)N3CCCC3C(=O)N(C)CC(=O)N(C)C(C(C)C)C(=O)OC2C)c(N)c1=O (centres undefined)	33.5	10.4	21.3	12.4	30.3	> 44.5	10.3	> 53.3	> 53.4	> 75	19.5	> 75	41.3	36	> 70.1	> 47.1	> 75	> 75	61.5	
Cc1ccc(C(=O)O)c(/C=C2\Cc3cc(C)cc(C)c3C2=O)c1	> 100	> 100	> 100	> 100	> 100	> 100	> 100	> 100	> 100	> 100	> 100	> 100	> 100		> 100	> 100	> 100	> 100		> 100
NC1=NCC(CN2CCCCC2)O1 (centres undefined)	> 100		> 100	> 100	> 100	> 100	> 100	> 100	> 100	> 100	> 100	> 100	> 100		> 100	> 100	> 100	> 100	> 100	> 100
CC(=O)c1cc(CC2Cc3cc4c(cc3C2=O)CCC4)cc2c1CCC2 (centres undefined)	> 100	> 100	> 100	> 100	> 100	> 100	> 100	> 100	> 100	> 100	> 100	> 100	> 100		> 100	> 100	> 100	> 100	> 100	> 100
CC(=O)c1cc2c(s1)C(=O)c1ccsc1C2=O	0.356	1.37	0.367	0.688	0.361	1.59	0.0782	0.37	6.82	4.16	0.561	3.4		5.04	0.352	1.15	3.24	0.367	5.38	
COc1ccc(Cc2cc(OC)c(OC)c(OC)c2)cc1	75.6	41.4	> 18.5	> 100	> 100	27	> 89.7	> 100	89.8	> 100		> 100	> 30.7	85.6	> 89.3	> 100	> 100	> 30.9	23.2	1.4
Cc1cccc2c(N)c3cccc(C(=O)NCC[N+](C)(C)Cc4ccc(S(C)(=O)=O)cc4)c3nc12	> 100	> 100	> 100	> 100	> 100	> 100	> 100	> 100	> 100	> 100	> 100	> 100	> 100	> 100	> 100	> 100	> 100	> 100	> 100	
COc1ccc2nc3c(C)cc4ccccc4n3c2c1	> 100		> 100	> 100	> 100	> 100		> 100	> 100	> 100	79.3	> 100		> 100	> 100	> 100	> 100	> 100	> 100	> 100
O=C1NC(=S)N/C1=C\c1ccc(Cl)cc1	> 100	> 100	> 100	> 100	> 100	> 100	> 100	> 100	> 100	> 100	> 100	> 100	> 100		> 100	> 100	> 100	> 100	> 100	
CCOC(=O)c1cc(C2=CCNC2=O)c(-c2cc(C)no2)[nH]1	> 100	> 100	> 100	> 100	> 100	> 100	> 100	> 100	> 100	> 100	> 100	> 100	> 100		> 100	> 100	> 100	> 100	> 100	> 100
C=C[C@]1(C)CC(=O)C(C(C)C=O)[C@]12C(=O)Oc1cccc(C)c1C2=O (some centres undefined)	28.4	32.4	30.8	31	29.2	31.5	27.5	25.2	34.1	30	42.7		31.6		30.3	26.3	40.2	28.3	33.1	> 100
